The values below come from BindingDB's records for doi:10.1016/j.bmc.2005.09.055 (Uk Centre For Cancer Therapeutics, 2006).

The target in assay [1] is RAC-beta serine/threonine-protein kinase (Homo sapiens, UniProt P31751). Briefly: PKB In Vitro Enzyme Assay.
For assay [2], the target named is cAMP-dependent protein kinase catalytic subunit alpha (Bos taurus, UniProt P00517). Briefly: PKA In Vitro Enzyme Assay.

Chain of RAC-beta serine/threonine-protein kinase (P31751 whole entry): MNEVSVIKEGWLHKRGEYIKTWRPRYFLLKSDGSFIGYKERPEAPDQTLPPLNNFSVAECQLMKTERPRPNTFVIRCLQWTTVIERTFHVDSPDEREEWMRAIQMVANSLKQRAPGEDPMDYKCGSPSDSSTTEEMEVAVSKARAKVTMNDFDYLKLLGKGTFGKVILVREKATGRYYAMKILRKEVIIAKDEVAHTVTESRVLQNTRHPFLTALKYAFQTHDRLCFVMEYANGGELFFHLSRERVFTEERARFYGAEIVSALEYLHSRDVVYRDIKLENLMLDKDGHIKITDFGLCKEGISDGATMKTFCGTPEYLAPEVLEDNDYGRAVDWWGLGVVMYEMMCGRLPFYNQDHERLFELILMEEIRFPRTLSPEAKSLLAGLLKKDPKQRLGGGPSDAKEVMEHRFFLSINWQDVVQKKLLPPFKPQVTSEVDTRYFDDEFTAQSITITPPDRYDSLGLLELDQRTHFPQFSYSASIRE

Regarding `O=S(=O)(NCCNCCOCc1ccc(Cl)c(Cl)c1)c1cccc2cnccc12` [Isoquinoline-5-sulfonic acid (2-(2-(3,4-dichlorobenzyloxy)ethylamino)ethyl)amide], the IC50 (in general, the midpoint of a concentration-inhibition curve) in assay [1] (pH 7.2, 22 °C) was determined as 210 nM. `O=S(=O)(NCCNCCOCc1cccc(Cl)c1)c1cccc2cnccc12` [Isoquinoline-5-sulfonic acid (2-(2-(3-chlorobenzyloxy)ethylamino)ethyl)amide]: the IC50 worked out at 410 nM in assay [2] (pH 7.2, 22 °C) and 370 nM in assay [1] (pH 7.2, 22 °C). In assay [1] (pH 7.2, 22 °C), `COc1cccc(COCCNCCNS(=O)(=O)c2cccc3cnccc23)c1` [Isoquinoline-5-sulfonic acid (2-(2-(3-methoxybenzyloxy)ethylamino)ethyl)amide] returned an IC50 of 2200 nM. That is a single-digit micromolar value.

In the case of `Cc1ccc(COCCNCCNS(=O)(=O)c2cccc3cnccc23)cc1` [Isoquinoline-5-sulfonic acid (2-(2-(4-methylbenzyloxy)ethylamino)ethyl)amide], the IC50 in assay [1] (pH 7.2, 22 °C) turned out to be 1530 nM. For the compound `O=S(=O)(NC[C@H]1CC[C@@H](COCc2ccc(Cl)cc2)N1)c1cccc2cnccc12` [Isoquinoline-5-sulfonic acid (2R*,5S*)-(5-(4-chlorobenzyloxymethyl)pyrrolidin-2-yl-methyl)amide], in assay [1], the IC50 amounted to 1700 nM. Regarding `O=S(=O)(NC[C@@H]1C[C@@H](OCc2ccc(Cl)cc2)CN1)c1cccc2cnccc12` [Isoquinoline-5-sulfonic acid (2S,4R)-(4-(4-chlorobenzyloxy)pyrrolidin-2-yl-methyl)amide], the IC50 in assay [2] amounted to 400 nM; in assay [1], 1700 nM. In the case of `O=S(=O)(NC[C@@H]1C[C@H](OCc2ccccc2)CN1)c1cccc2cnccc12` [Isoquinoline-5-sulfonic acid (2S,4S)-(4-(benzyloxy)pyrrolidin-2-yl-methyl)amide], the IC50 in assay [1] was 3400 nM. Same read-out and setting: with `O=S(=O)(NCC1CCNCC1)c1cccc2cnccc12` [Isoquinoline-5-sulfonic acid (piperidin-4-ylmethyl)amide] the figure was 57000 nM. Turning to `O=S(=O)(c1cccc2cnccc12)N1CCNCC1` [Isoquinoline-5-sulfonic acid piperazin-1 ylamide], the IC50 in assay [1] (pH 7.2, 22 °C) came to 23000 nM.

Consider `O=S(=O)(NC1CCNC1)c1cccc2cnccc12` (stereo unspecified) [Isoquinoline-5-sulfonic acid pyrrolidin-3-ylamide], for which, in assay [1], inhibition was half-maximal at 3900 nM (IC50). `N[C@H]1CC[C@H](NS(=O)(=O)c2cccc3cnccc23)CC1` [Isoquinoline-5-sulfonic acid trans-(4-aminocyclohexyl)amide]: the IC50 in assay [2] was found to be 5700 nM; in assay [1], 8100 nM. `O=S(=O)(NCCNCCOCc1ccccc1)c1cccc2cnccc12` [N-(2-{[2-(benzyloxy)ethyl]amino}ethyl)isoquinoline-5-sulfonamide] came in with an IC50 in assay [1] (pH 7.2, 22 °C) of 1170 nM. Same read-out and setting: under `NCCCNS(=O)(=O)c1cccc2cnccc12` [N-(3-aminopropyl)isoquinoline-5-sulfonamide] stands 4800 nM. Regarding `O=S(=O)(NC1CCNCC1)c1cccc2cnccc12` [N-(piperidin-4-yl)isoquinoline-5-sulfonamide], the IC50 was found to be 3900 nM in assay [2] (pH 7.2, 22 °C) and 8700 nM in assay [1] (pH 7.2, 22 °C).

In turn, `CNCCNS(=O)(=O)c1cccc2cnccc12` [N-[2-(methylamino)ethyl]isoquinoline-5-sulfonamide] gave an IC50 in assay [1] of 7600 nM. In the case of `O=S(=O)(NCCNCCOCc1ccccc1Cl)c1cccc2cnccc12` [N-[2-({2-[(2-chlorophenyl)methoxy]ethyl}amino)ethyl]isoquinoline-5-sulfonamide], the IC50 is 1000 nM in assay [2] (pH 7.2, 22 °C) and 960 nM in assay [1] (pH 7.2, 22 °C).

`COc1ccccc1COCCNCCNS(=O)(=O)c1cccc2cnccc12` [N-[2-({2-[(2-methoxyphenyl)methoxy]ethyl}amino)ethyl]isoquinoline-5-sulfonamide] came in with an IC50 in assay [1] (pH 7.2, 22 °C) of 6600 nM. Still for that read-out and setting: with `Cc1ccccc1COCCNCCNS(=O)(=O)c1cccc2cnccc12` [N-[2-({2-[(2-methylphenyl)methoxy]ethyl}amino)ethyl]isoquinoline-5-sulfonamide] the figure was 570 nM; with `Cc1cccc(COCCNCCNS(=O)(=O)c2cccc3cnccc23)c1` [N-[2-({2-[(3-methylphenyl)methoxy]ethyl}amino)ethyl]isoquinoline-5-sulfonamide], 1100 nM; with `COc1ccc(COCCNCCNS(=O)(=O)c2cccc3cnccc23)cc1` [N-[2-({2-[(4-methoxyphenyl)methoxy]ethyl}amino)ethyl]isoquinoline-5-sulfonamide], 2900 nM. The compound `O=S(=O)(N[C@H]1CC[C@H](NCc2ccccc2)CC1)c1cccc2cnccc12` [N-[4-(benzylamino)cyclohexyl]isoquinoline-5-sulfonamide] displayed an IC50 in assay [1] of 6600 nM. The same measure, in the same setting: with `O=S(=O)(NC[C@@H]1CCCN1)c1cccc2cnccc12` [N-[(2S)-pyrrolidin-2-ylmethyl]isoquinoline-5-sulfonamide] the figure was 39000 nM.

`O=S(=O)(N[C@H]1CN[C@H](COCc2ccc(Cl)cc2)C1)c1cccc2cnccc12` [N-[(3R,5S)-5-{[(4-chlorophenyl)methoxy]methyl}pyrrolidin-3-yl]isoquinoline-5-sulfonamide] came in with an IC50 in assay [1] of 5200 nM. For the compound `O=c1[nH]ccc2c(S(=O)(=O)N[C@@H]3CN[C@H](COCc4ccc(Cl)cc4)C3)cccc12` [N-[(3S,5S)-5-{[(4-chlorophenyl)methoxy]methyl}pyrrolidin-3-yl]-1-hydroxyisoquinoline-5-sulfonamide], the 50% inhibitory concentration (IC50) in assay [2] is 1300 nM; in assay [1] it was 520 nM. `Cc1cncc2cccc(S(=O)(=O)N[C@@H]3CN[C@H](COCc4ccc(Cl)cc4)C3)c12` [N-[(3S,5S)-5-{[(4-chlorophenyl)methoxy]methyl}pyrrolidin-3-yl]-4-methylisoquinoline-5-sulfonamide]: the half-maximal inhibitory concentration (IC50) in assay [2] amounted to 320 nM; in assay [1] it was 2600 nM.

Take `O=S(=O)(N[C@@H]1CN[C@H](COCc2ccc(Cl)cc2)C1)c1cccc2cnccc12` [N-[(3S,5S)-5-{[(4-chlorophenyl)methoxy]methyl}pyrrolidin-3-yl]isoquinoline-5-sulfonamide]: the values for the IC50 in assay [2] and in assay [1] were 420 nM and 780 nM, respectively.

For `O=S(=O)(NC[C@@H]1C[C@H](OCc2ccc(Cl)cc2)CN1)c1cccc2cnccc12` [N-{[(2S,4S)-4-[(4-chlorophenyl)methoxy]pyrrolidin-2-yl]methyl}isoquinoline-5-sulfonamide], the IC50 in assay [2] was found to be 170 nM; in assay [1] it was 480 nM.
